Active and inactive are the calls of the source. No cut-off for these calls is given here.
How the values were obtained:
Type in all cases: functional, cell-based
A549 [1] = assay: Cytotoxicity against human A549 cells by MTT assay
HeLa [2] = assay: Cytotoxicity against human HeLa cells by MTT assay
Huh-7 [3] = assay: Cytotoxicity against human HuH7 cells by MTT assay
A549 [4] = assay: Cytotoxicity against human A549 cells up to 100 uM by MTT assay
HeLa [5] = assay: Cytotoxicity against human HeLa cells up to 100 uM by MTT assay
Huh-7 [6] = assay: Cytotoxicity against human HuH7 cells up to 100 uM by MTT assay

## CS[C@]1(CO)NC(=O)[C@](Cc2c[nH]c3ccccc23)(SC)NC1=O
A549 [1]
  Activity: inactive
HeLa [2]
  Activity: inactive
Huh-7 [3]
  Activity: inactive

## CO[C@]1(CO)NC(=O)[C@](Cc2c[nH]c3ccccc23)(OC)NC1=O
A549 [4]
  Activity: inactive
HeLa [5]
  Activity: inactive
Huh-7 [6]
  Activity: inactive

## CN1C(=O)[C@]2(Cc3c[nH]c4ccccc34)SSSS[C@@]1(CO)C(=O)N2C
A549 [1]
  IC50: 930 to 2450 nM
HeLa [2]
  IC50: 930 to 2450 nM
Huh-7 [3]
  IC50: 930 to 2450 nM

## CO[C@]1(CO)NC(=O)[C@@](Cc2c[nH]c3ccccc23)(OC)NC1=O
A549 [4]
  Activity: inactive
HeLa [5]
  Activity: inactive
Huh-7 [6]
  Activity: inactive

## CO[C@]1(CO)NC(=O)[C@](Cc2c[nH]c3ccccc23)(SC)NC1=O
A549 [1]
  Activity: inactive
HeLa [2]
  Activity: inactive
Huh-7 [3]
  Activity: inactive

## CO[C@]1(Cc2c[nH]c3ccccc23)NC(=O)[C@H](CO)N(C)C1=O
A549 [4]
  Activity: inactive
HeLa [5]
  Activity: inactive
Huh-7 [6]
  Activity: inactive

## CO[C@@]1(CO)NC(=O)[C@](Cc2c[nH]c3ccccc23)(SC)NC1=O
A549 [1]
  Activity: inactive
HeLa [2]
  Activity: inactive
Huh-7 [3]
  Activity: inactive

Source: ChEMBL document CHEMBL4610069, “Chetocochliodins A-I, Epipoly(thiodioxopiperazines) from Chaetomium cochliodes” (J Nat Prod, 2020)
